Experimental data from ChEMBL document CHEMBL5380880, “Novel drug-like fluorenyl derivatives as selective butyrylcholinesterase and β-amyloid inhibitors for the treatment of Alzheimer's disease” (Bioorg Med Chem, 2023).
Calls of active or inactive are those of the source. The calls are words filed in the database; no cut-off is given here.

Key:
[1] = target: Amyloid-beta precursor protein (Homo sapiens) (UniProt P05067); test: Inhibition of amyloid beta (unknown origin) aggregation at 10 uM incubated for 5 mins by thioflavin fluorescent based analysis relative to control
Amyloid-beta precursor protein (Homo sapiens), sequence (P05067 whole entry): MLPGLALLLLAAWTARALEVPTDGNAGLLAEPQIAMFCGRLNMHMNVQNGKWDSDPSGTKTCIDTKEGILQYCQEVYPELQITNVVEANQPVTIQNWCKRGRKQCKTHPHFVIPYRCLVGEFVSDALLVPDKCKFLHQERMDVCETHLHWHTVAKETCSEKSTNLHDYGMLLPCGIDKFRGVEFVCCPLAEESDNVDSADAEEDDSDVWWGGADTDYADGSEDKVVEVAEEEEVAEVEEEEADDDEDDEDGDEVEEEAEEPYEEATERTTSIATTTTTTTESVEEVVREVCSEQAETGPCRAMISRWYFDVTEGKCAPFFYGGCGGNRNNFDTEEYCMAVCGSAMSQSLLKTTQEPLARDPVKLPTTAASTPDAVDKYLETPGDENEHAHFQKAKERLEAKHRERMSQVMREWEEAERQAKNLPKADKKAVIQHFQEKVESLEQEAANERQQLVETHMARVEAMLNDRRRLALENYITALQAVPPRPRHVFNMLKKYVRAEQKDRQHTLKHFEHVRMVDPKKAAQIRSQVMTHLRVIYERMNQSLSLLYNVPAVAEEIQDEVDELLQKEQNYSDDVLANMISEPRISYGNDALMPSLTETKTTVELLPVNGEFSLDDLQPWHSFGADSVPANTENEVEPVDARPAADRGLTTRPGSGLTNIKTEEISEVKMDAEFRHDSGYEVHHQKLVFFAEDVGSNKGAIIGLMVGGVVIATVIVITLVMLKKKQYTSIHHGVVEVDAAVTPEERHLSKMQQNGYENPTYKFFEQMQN

Cholinesterase = Cholinesterase (Equus caballus, UniProt P81908); test: Inhibition of equine serum BuChE by Ellman's method
Cholinesterase, sequence (P81908 whole entry): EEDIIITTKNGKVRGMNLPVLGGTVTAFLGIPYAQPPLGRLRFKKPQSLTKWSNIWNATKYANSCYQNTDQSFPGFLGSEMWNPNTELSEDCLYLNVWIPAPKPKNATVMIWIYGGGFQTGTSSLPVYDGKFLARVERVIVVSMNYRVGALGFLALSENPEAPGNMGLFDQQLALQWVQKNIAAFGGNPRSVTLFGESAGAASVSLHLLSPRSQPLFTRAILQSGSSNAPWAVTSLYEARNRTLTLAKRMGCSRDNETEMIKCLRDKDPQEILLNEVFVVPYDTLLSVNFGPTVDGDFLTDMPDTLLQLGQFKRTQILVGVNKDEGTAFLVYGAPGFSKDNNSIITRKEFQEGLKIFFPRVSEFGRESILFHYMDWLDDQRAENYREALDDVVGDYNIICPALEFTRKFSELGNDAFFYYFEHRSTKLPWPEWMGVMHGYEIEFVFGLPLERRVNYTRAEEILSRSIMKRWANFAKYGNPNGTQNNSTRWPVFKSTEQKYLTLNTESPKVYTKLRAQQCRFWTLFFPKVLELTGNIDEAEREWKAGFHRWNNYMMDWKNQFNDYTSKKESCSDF

[2] = Lipophilicity, logD of compound at pH 7.4; type: physicochemical; settings: buffer
[3] = target: Cholinesterase (Equus caballus) (UniProt P81908); test: Inhibition of equine serum BuChE at 10 uM by Ellman's method relative to control
Cholinesterase (Equus caballus), sequence (P81908 whole entry): as above

[4] = target: Cholinesterase (Equus caballus) (UniProt P81908); test: Inhibition of equine serum BuChE
[5] = target: Acetylcholinesterase (Electrophorus electricus) (UniProt O42275); test: Inhibition of Electric eel AChE relative to control; settings: concentration not given here
Acetylcholinesterase (Electrophorus electricus), sequence (O42275 24-633 limits assumed): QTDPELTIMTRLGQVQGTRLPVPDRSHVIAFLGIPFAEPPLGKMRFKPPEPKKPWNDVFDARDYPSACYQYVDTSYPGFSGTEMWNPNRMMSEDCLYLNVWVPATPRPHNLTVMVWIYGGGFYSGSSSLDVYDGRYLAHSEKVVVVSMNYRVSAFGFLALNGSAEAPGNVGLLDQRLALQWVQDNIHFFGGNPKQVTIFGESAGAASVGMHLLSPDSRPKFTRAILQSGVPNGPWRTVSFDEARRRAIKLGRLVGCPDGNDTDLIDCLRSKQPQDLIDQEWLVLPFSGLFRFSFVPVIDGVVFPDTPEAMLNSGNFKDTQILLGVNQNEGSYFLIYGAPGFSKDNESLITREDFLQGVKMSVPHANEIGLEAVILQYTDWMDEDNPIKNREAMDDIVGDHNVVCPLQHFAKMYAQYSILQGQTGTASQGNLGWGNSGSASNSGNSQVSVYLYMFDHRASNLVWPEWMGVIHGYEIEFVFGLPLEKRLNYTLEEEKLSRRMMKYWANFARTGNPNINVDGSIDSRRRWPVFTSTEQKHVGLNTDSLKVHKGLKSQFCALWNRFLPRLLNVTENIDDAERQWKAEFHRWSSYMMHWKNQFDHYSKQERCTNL

[6] = Lipophilicity, logP of compound; type: physicochemical; settings: octanol/water

Row | SMILES | inhibition [1] [%] | IC50 (Cholinesterase) [nM] | logD [2] | inhibition [3] [%] | inhibition [4] | inhibition [5] [%] | logP [6]
1 | O=C(CC1c2ccccc2-c2ccccc21)NCC(O)CNCC1CCCCCC1 (racemic) | 4.6 | 1090 | 1.55 | – | – | – | –
2 | O=C(CC1c2ccccc2-c2ccccc21)NCC(O)CNCC1CCCCC1 (racemic) | 4.6 | 1690 | 1.1 | – | – | – | –
3 | O=C(CC1c2ccccc2-c2ccccc21)NCC(O)CNCC1CCCC1 (racemic) | 4.6 | 1710 | 0.66 | – | – | – | –
4 | O=C(NCC(O)CNC1CCCCC1)C1c2ccccc2-c2ccccc21 (racemic) | 4.6 | 336 | 0.6 | – | – | – | –
5 | O=C(NCC(O)CNCc1ccccc1)C1c2ccccc2-c2ccccc21 (racemic) | 4.6 | 627 | 1.78 | – | – | – | –
6 | O=C(NC[C@@H](O)CNCC1CCCCCC1)C1c2ccccc2-c2ccccc21 | 4.6 | 31 | – | – | – | – | –
7 | CC(C)(C)CNCC(O)CNC(=O)C1c2ccccc2-c2ccccc21 (racemic) | 4.6 | 385 | 0.54 | – | – | – | –
8 | O=C(NCC(O)CNCC(F)(F)F)C1c2ccccc2-c2ccccc21 (racemic) | 67.6 | 12900 | 2.33 | – | – | – | –
9 | O=C(NC[C@H](O)CNCC1CCCCCC1)C1c2ccccc2-c2ccccc21 | 4.6 | 288 | – | – | – | – | –
10 | Nc1c2c(nc3ccccc13)CCCC2 | 4.6 | – | – | – | – | – | –
11 | O=C(CC1c2ccccc2-c2ccccc21)NCC(O)CNCCC1CCCCC1 (racemic) | 4.6 | 422 | 1.6 | – | – | – | –
12 | O=C(NCC(O)CNCC1CC1)C1c2ccccc2-c2ccccc21 (racemic) | 4.6 | 435 | -0.29 | – | – | – | –
13 | O=C(NCC(O)CNCCC1CCCCC1)C1c2ccccc2-c2ccccc21 (racemic) | 60.7 | 475 | 1.41 | – | – | – | –
14 | CC(C)(C)CNCC(O)CNC(=O)CC1c2ccccc2-c2ccccc21 (racemic) | 4.6 | 672 | 0.73 | – | – | – | –
15 | O=C(NCC(O)CNCC1CCCC1)C1c2ccccc2-c2ccccc21 (racemic) | 4.6 | 379 | 0.47 | – | – | – | –
16 | O=C(CC1c2ccccc2-c2ccccc21)NCC(O)CNC1CCCCC1 (racemic) | 4.6 | 1490 | 0.79 | – | – | – | –
17 | O=C(CC1c2ccccc2-c2ccccc21)NCC(O)CNCc1ccccc1 (racemic) | 4.6 | 4330 | 1.88 | – | – | – | –
18 | O=C(NCC(O)CNCC1CCCCC1)C1c2ccccc2-c2ccccc21 (racemic) | 4.6 | 231 | 0.91 | – | – | – | –
19 | O=C(CC1c2ccccc2-c2ccccc21)NCC(O)CNCC1CC1 (racemic) | 4.6 | – | -0.1 | 44.5 | inactive | > 20 | –
20 | CC(C)(C)c1cccc(CNCC(O)CNCCC(c2ccccc2)c2ccccc2)c1 (centres undefined) | 4.6 | – | 3.7 | – | – | – | 5.96
21 | O=C(NCC(O)CNCC1CCCCCC1)C1c2ccccc2-c2ccccc21 (racemic) | 4.6 | 38 | 1.36 | – | – | – | –
22 | O=C(CC(c1ccccc1)c1ccccc1)NCC(O)CNCC1CCCCC1 (centres undefined) | 4.6 | 78 | 1.43 | – | – | – | –
